Reference: patent US10471046B2, “Method for treating, preventing, or reducing the risk of skin infection” (Melinta Subsidiary Corp., priority 2014, dated 2019)
≈ marks a conversion by molar mass, not a printed value.

System: S. aureus
Assay: Minimum inhibitory concentrations (MICs) for S. aureus of exemplary compounds (Table 2)
Format: cell-based
Settings: Staphylococcus aureus, minimum inhibitory concentrations for S. aureus; read-out: MICs
In short: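 Growth of S. aureus in media with or without compound, by broth microdilution in microtiter trays following NCCLS M7-A5 guidelines. Values are MICs in μg/mL.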

Row | SMILES | MIC [µg/mL]
1 | CC(=O)NC[C@H]1CN(c2ccc(-c3ccc(CSc4nnnn4CCN(C)C)cc3)c(F)c2)C(=O)O1 [Compound 2027, N-(3-{4′-[1-(2-Dimethylamino-ethyl)-1H-tetrazol-5-ylsulfanylmethyl]-2-fluoro-biphenyl-4-yl}-2-oxo-oxazolidin-5-(S)-ylmethyl)-acetamide] | 1 (≈ 1.95 µM)
2 | CC(=O)NC[C@H]1CN(c2ccc(-c3ccc([C@@H](CO)NCc4cocn4)cc3)c(F)c2)C(=O)O1 [Compound 4200, N-[3-(2-Fluoro-4′-{2-hydroxy-1-(S)-[(oxazol-4-ylmethyl)-amino]-ethyl}-biphenyl-4-yl)-2-oxo-oxazolidin-5-(S)-ylmethyl]-acetamide] | 4 (≈ 8.54 µM)
3 | CC(=O)NC[C@H]1CN(c2ccc(-c3ccc(CNCC(CF)n4ccnn4)cc3)c(F)c2)C(=O)O1 (stereo partly drawn) [Compound 4274, N-(3-{2-Fluoro-4′-[(3-fluoro-2-[1,2,3]triazol-1-yl-propylamino)-methyl]-biphenyl-4-yl}-2-oxo-oxazolidin-5-(S)-ylmethyl)-acetamide] | 2 (≈ 4.13 µM)
4 | CC(=O)NC[C@H]1CN(c2ccc(-c3ccc(CN4CCCC(F)(F)C4)cc3)c(F)c2)C(=O)O1 [Compound 1097, N-{3-[4′-(3,3-Difluoro-piperidin-1-ylmethyl)-2-fluoro-biphenyl-4-yl]-2-oxo-oxazolidin-5-(S)-ylmethyl}-acetamide] | 2 (≈ 4.33 µM)
5 | CC(=O)NC[C@H]1CN(c2ccc(-c3ccc(CNOCc4ccccc4)cc3)c(F)c2)C(=O)O1 [Compound 4263, N-{3-[4′-(Benzyloxyamino-methyl)-2-fluoro-biphenyl-4-yl]-2-oxo-oxazolidin-5-(S)-ylmethyl}-acetamide] | 2 (≈ 4.31 µM)
6 | CC(=O)NC[C@H]1CN(c2ccc(-c3ccc(CN(Cc4nnn(C)n4)C(=O)OC(C)(C)C)cc3)c(F)c2)C(=O)O1 [Compound 4281, {4′-[5-(S)-(Acetylamino-methyl)-2-oxo-oxazolidin-3-yl]-2′-fluoro-biphenyl-4-ylmethyl}-(2-methyl-2H-tetrazol-5-ylmethyl)-carbamic acid tert-butyl ester] | 2 (≈ 3.61 µM)
7 | CC(=O)NC[C@H]1CN(c2ccc(-c3ccc(Cn4nnc5c(=O)[nH]cnc54)cc3)c(F)c2)C(=O)O1 [Compound 1027, N-{3-[2-Fluoro-4′-(7-oxo-6,7-dihydro-[1,2,3]triazolo[4,5-d]pyrimidin-3-ylmethyl)-biphenyl-4-yl]-2-oxo-oxazolidin-5-(S)-ylmethyl}-acetamide] | 1 (≈ 2.09 µM)
8 | CC(=O)NC[C@H]1CN(c2ccc(-c3ccc(CNCc4cocn4)cc3)c(F)c2)C(=O)O1 [Compound 4234, N-[3-(2-Fluoro-4′-{[(oxazol-4-ylmethyl)-amino]-methyl}-biphenyl-4-yl)-2-oxo-oxazolidin-5-(S)-ylmethyl]-acetamide] | 2 (≈ 4.56 µM)
9 | CC(=O)NC[C@H]1CN(c2ccc(-c3ccc(/C=N/Nc4ccccn4)cc3)c(F)c2)C(=O)O1 [Compound 2041, N-{3-[2-Fluoro-4′-(pyridin-2-yl-hydrazonomethyl)-biphenyl-4-yl]-2-oxo-oxazolidin-5-(S)-ylmethyl}-acetamide] | 1 (≈ 2.23 µM)
10 | CC(=O)NC[C@H]1CN(c2ccc(-c3ccc(CNCc4ccccn4)c(F)c3F)c(F)c2)C(=O)O1 [Compound 4090, N-[2-Oxo-3-(2,2′,3′-trifluoro-4′-{[(pyridin-2-ylmethyl)-amino]-methyl}-biphenyl-4-yl)-oxazolidin-5-(S)-ylmethyl]-acetamide] | 4 (≈ 8.26 µM)
11 | CC(=O)NC[C@H]1CN(c2ccc(-c3ccc(C(=O)NCCc4cnc[nH]4)nc3)c(F)c2)C(=O)O1 [Compound 4223, 5-{4-[5-(S)-(Acetylamino-methyl)-2-oxo-oxazolidin-3-yl]-2-fluoro-phenyl}-pyridine-2-carboxylic acid [2-(3H-imidazol-4-yl)-ethyl]-amide] | 2 (≈ 4.29 µM)
12 | CC(=O)NC[C@H]1CN(c2ccc(-c3ccc(CNCc4ccncc4)nc3)c(F)c2)C(=O)O1 [Compound 4073, N-{3-[3-Fluoro-4-(6-{[(pyridin-4-ylmethyl)-amino]-methyl}-pyridin-3-yl)-phenyl]-2-oxo-oxazolidin-5-(S)-ylmethyl}-acetamide] | 2 (≈ 4.45 µM)
